Results from patent publication US11530186B2, “Inhibitors for the β-catenin / T-cell factor protein-protein interaction” (H. LEE MOFFITT CANCER CENTER AND RESEARCH INSTITUTE, INC., priority 2018, dated 2022).
Read-outs that look alike come from different tables or passages of the source.

Biological target: T1, β-catenin/Tcf protein-protein interaction (Homo sapiens, UniProt P35222)
T1 construct: Wild-type β-catenin (residues 138-781) were cloned into a pET-28b vector; 6×histidine (C); made in house; host or cells: E. coli BL21 DE3
T1 sequence (P35222 138-781): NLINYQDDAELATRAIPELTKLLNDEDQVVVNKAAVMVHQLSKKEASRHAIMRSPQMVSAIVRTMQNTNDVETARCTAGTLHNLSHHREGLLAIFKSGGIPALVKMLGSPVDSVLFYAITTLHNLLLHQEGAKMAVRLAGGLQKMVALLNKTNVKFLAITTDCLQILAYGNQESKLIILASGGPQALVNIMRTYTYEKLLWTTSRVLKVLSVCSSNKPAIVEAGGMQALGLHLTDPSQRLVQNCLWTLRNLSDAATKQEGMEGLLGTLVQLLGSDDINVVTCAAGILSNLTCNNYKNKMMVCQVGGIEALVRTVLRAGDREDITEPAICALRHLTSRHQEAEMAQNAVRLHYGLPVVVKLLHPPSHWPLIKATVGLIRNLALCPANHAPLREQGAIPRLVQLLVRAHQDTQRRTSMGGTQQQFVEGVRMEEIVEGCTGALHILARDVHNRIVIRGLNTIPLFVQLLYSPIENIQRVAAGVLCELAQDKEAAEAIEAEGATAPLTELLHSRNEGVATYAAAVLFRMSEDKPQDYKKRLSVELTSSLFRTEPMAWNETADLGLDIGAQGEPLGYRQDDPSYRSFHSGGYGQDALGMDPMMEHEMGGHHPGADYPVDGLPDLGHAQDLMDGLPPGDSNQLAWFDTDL
Experiment: FP competitive inhibition assay
Assay type: binding
Summary of the method: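 His-tagged human β-catenin (residues 138-781, E. coli-expressed) at 10 nM with 2.5 nM fluorescein-labeled Tcf4 (7-51) in PBS-type buffer with bovine γ-globulin and 0.01% Triton X-100. Compounds added, 1.5 h at 4 °C, 1% DMSO, before fluorescence polarization read. IC50 by nonlinear fit; Ki derived from IC50.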

Ki (Assay 1, mean ± SD (n = 3), read-out: Ki ± SD, Assay 1): 3.3 ± 0.64 µM
Ki (Assay 2, mean ± SD (n = 3), read-out: Ki ± SD, Assay 2): 1.3 ± 0.38 µM
Ki (Assay 3, mean ± SD (n = 3), read-out: Ki ± SD, Assay 3): 5.6 ± 1.8 µM
SMILES: O=C(O)c1ccc2c(c1)c(CCc1ccc(Cl)cc1)c(CCc1nc3ccccc3s1)n2CCc1nn[nH]n1 [Compound 27, 1-(2-(2H-tetrazol-5-yl)ethyl)-2-(2-(benzo[d]thiazol-2-yl)ethyl)-3-(4-chlorophenethyl)-1H-indole-5-carboxylic acid]
